Measured values taken from the NIST ThermoML archive (doi:10.1021/je060139a).

Experiments:
[1] = xn = mol fraction of the nth substance listed; settings: Wilhelmy plate method
[2] = refractive index (Na D-line) (dimensionless); xn = mol fraction of the nth substance listed; settings: 100.5 kPa, Liquid, Standard Abbe refractometry

CCOC(=O)CC(C)=O [ethyl 3-oxobutanoate] + CCO
Settings | refractive index, 288.15 K | refractive index, 298.18 K | refractive index, 308.15 K | refractive index, 318.15 K | surface tension liquid-gas, 288.15 K [mN/m] | surface tension liquid-gas, 298.18 K [mN/m] | surface tension liquid-gas, 308.15 K [mN/m] | surface tension liquid-gas, 318.15 K [mN/m]
[1], x1 = 0.05 | – | – | – | – | 23.53 | 22.77 | 21.91 | 20.98
[1], x1 = 0.1 | – | – | – | – | 24.1 | 23.31 | 22.42 | 21.46
[1], x1 = 0.15 | – | – | – | – | 24.65 | 23.83 | 22.91 | 21.94
[1], x1 = 0.2 | – | – | – | – | 25.22 | 24.38 | 23.42 | 22.43
[1], x1 = 0.25 | – | – | – | – | 25.77 | 24.89 | 23.9 | 22.9
[1], x1 = 0.3 | – | – | – | – | 26.28 | 25.38 | 24.38 | 23.37
[1], x1 = 0.35 | – | – | – | – | 26.78 | 25.88 | 24.84 | 23.83
[1], x1 = 0.4 | – | – | – | – | 27.28 | 26.36 | 25.32 | 24.3
[1], x1 = 0.45 | – | – | – | – | 27.8 | 26.86 | 25.81 | 24.79
[1], x1 = 0.5 | – | – | – | – | 28.35 | 27.4 | 26.32 | 25.29
[1], x1 = 0.55 | – | – | – | – | 28.92 | 27.96 | 26.84 | 25.8
[1], x1 = 0.6 | – | – | – | – | 29.46 | 28.52 | 27.38 | 26.31
[1], x1 = 0.65 | – | – | – | – | 30.02 | 29.04 | 27.9 | 26.81
[1], x1 = 0.7 | – | – | – | – | 30.54 | 29.55 | 28.4 | 27.3
[1], x1 = 0.75 | – | – | – | – | 31.05 | 30.06 | 28.89 | 27.78
[1], x1 = 0.8 | – | – | – | – | 31.53 | 30.54 | 29.36 | 28.24
[1], x1 = 0.85 | – | – | – | – | 32.02 | 31.01 | 29.81 | 28.7
[1], x1 = 0.9 | – | – | – | – | 32.47 | 31.46 | 30.26 | 29.14
[1], x1 = 0.95 | – | – | – | – | 32.91 | 31.89 | 30.68 | 29.56
[1], x1 = 1 | – | – | – | – | 33.3 | 32.3 | 31.1 | 30
[2], x1 = 0.05 | 1.3696 | 1.3654 | 1.3612 | 1.3572 | – | – | – | –
[2], x1 = 0.1 | 1.3751 | 1.3709 | 1.3666 | 1.3625 | – | – | – | –
[2], x1 = 0.15 | 1.38 | 1.3757 | 1.3714 | 1.3672 | – | – | – | –
[2], x1 = 0.2 | 1.3843 | 1.3801 | 1.3758 | 1.3715 | – | – | – | –
[2], x1 = 0.25 | 1.3882 | 1.384 | 1.3797 | 1.3755 | – | – | – | –
[2], x1 = 0.3 | 1.3918 | 1.3876 | 1.3833 | 1.379 | – | – | – | –
[2], x1 = 0.35 | 1.3951 | 1.3908 | 1.3866 | 1.3823 | – | – | – | –
[2], x1 = 0.4 | 1.3981 | 1.3938 | 1.3896 | 1.3852 | – | – | – | –
[2], x1 = 0.45 | 1.4009 | 1.3965 | 1.3923 | 1.388 | – | – | – | –
[2], x1 = 0.5 | 1.4034 | 1.3991 | 1.3949 | 1.3905 | – | – | – | –
[2], x1 = 0.55 | 1.4058 | 1.4014 | 1.3972 | 1.3928 | – | – | – | –
[2], x1 = 0.6 | 1.4079 | 1.4036 | 1.3994 | 1.395 | – | – | – | –
[2], x1 = 0.65 | 1.41 | 1.4056 | 1.4014 | 1.397 | – | – | – | –
[2], x1 = 0.7 | 1.4119 | 1.4075 | 1.4033 | 1.3989 | – | – | – | –
[2], x1 = 0.75 | 1.4137 | 1.4093 | 1.4051 | 1.4007 | – | – | – | –
[2], x1 = 0.8 | 1.4154 | 1.4111 | 1.4069 | 1.4024 | – | – | – | –
[2], x1 = 0.85 | 1.417 | 1.4126 | 1.4084 | 1.404 | – | – | – | –
[2], x1 = 0.9 | 1.4184 | 1.4141 | 1.4099 | 1.4054 | – | – | – | –
[2], x1 = 0.95 | 1.4198 | 1.4154 | 1.4112 | 1.4068 | – | – | – | –
[2], x1 = 1 | 1.4209 | 1.4166 | 1.4125 | 1.408 | – | – | – | –
